Reference: the Kinase Knowledgebase extract (Sharma et al. 2016)

Molecular target: EGFR (UniProt P00533)
Sequence (P00533 whole entry, looked up): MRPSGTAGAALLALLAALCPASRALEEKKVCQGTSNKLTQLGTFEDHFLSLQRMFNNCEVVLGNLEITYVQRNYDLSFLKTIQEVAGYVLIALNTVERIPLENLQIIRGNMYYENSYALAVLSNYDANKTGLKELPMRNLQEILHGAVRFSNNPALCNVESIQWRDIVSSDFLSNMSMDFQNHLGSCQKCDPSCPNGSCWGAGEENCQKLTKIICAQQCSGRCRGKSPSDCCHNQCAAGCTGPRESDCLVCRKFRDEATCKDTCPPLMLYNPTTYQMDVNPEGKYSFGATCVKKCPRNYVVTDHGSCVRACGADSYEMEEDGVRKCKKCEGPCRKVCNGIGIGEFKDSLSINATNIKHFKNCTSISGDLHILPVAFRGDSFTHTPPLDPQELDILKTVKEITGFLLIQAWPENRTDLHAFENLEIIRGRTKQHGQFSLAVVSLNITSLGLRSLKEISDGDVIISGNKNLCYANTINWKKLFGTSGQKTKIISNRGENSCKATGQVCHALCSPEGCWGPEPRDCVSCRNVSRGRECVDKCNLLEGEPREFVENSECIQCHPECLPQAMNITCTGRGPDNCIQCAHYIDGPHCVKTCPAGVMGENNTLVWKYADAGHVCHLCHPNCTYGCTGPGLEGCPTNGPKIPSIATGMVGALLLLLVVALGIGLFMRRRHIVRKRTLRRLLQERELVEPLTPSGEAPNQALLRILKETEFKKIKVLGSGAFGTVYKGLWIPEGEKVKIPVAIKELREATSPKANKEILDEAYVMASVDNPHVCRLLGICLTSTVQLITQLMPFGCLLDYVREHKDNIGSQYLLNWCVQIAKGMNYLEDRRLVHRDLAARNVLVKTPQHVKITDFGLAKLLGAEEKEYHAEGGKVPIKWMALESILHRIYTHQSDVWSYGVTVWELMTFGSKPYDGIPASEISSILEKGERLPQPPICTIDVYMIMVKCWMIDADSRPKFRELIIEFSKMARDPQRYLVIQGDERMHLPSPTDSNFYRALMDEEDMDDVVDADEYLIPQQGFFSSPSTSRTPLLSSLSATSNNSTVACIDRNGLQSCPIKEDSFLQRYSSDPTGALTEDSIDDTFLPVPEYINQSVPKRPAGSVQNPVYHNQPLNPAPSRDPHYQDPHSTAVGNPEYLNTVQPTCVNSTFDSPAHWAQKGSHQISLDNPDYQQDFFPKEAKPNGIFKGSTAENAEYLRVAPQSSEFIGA

| IC50 | SMILES |
| --- | --- |
| ≤ 1 µM | COc1ccc(S(=O)(=O)Nc2ncnc3cc(OCCN4CCOCC4)c(OC)cc23)cc1 |
| ≤ 1 µM | COc1ccc(OC)c(S(=O)(=O)Nc2ncnc3cc(OCCN4CCCCC4)c(OC)cc23)c1 |
| ≤ 1 µM | COc1cc2c(NS(=O)(=O)c3ccccc3C)ncnc2cc1OC1CCN(C)CC1 |
| ≤ 1 µM | COc1cc2c(NS(=O)(=O)c3ccc(C)cc3)ncnc2cc1OCCN1CCOCC1 |
| ≤ 1 µM | COc1cc2c(NS(=O)(=O)c3cccc(Cl)c3)ncnc2cc1OCCN1CCN(C)CC1 |
| ≤ 1 µM | COc1cc2c(NS(C)(=O)=O)ncnc2cc1OCCN1CCN(C)CC1 |
| ≤ 1 µM | COc1ccc(S(=O)(=O)Nc2ncnc3cc(OCCCN(C)C)c(OC)cc23)cc1OC |
| ≤ 1 µM | COc1cc2c(NS(=O)(=O)c3cc(Cl)c(Cl)s3)ncnc2cc1OCCN1CCOCC1 |
| ≤ 1 µM | COc1cc2c(NS(=O)(=O)c3ccccc3Br)ncnc2cc1OCCN1CCOCC1 |
| ≤ 1 µM | COc1cc2c(NS(=O)(=O)c3cccc4cccnc34)ncnc2cc1OCCCN(C)C |
| ≤ 1 µM | COc1cc2c(NS(=O)(=O)c3ccccc3Cl)ncnc2cc1OCCCN(C)C |
| ≤ 1 µM | COc1cc2c(NS(=O)(=O)c3ccccc3)ncnc2cc1OCCN1CCN(C)CC1 |
| ≤ 1 µM | COc1cc2c(NS(=O)(=O)c3ccccc3C)ncnc2cc1OCCN1CCCCC1 |
| ≤ 1 µM | COc1cc2c(NS(=O)(=O)c3ccc(Cl)s3)ncnc2cc1OCCN1CCN(C)CC1 |
| ≤ 1 µM | COc1cc2c(NS(=O)(=O)c3ccc(Cl)cc3)ncnc2cc1OC1CCN(C)CC1 |
| ≤ 1 µM | COc1cc2c(NS(=O)(=O)c3ccccc3)ncnc2cc1OCCCN(C)C |
| ≤ 1 µM | COc1cc2c(NS(=O)(=O)c3ccccc3Cl)ncnc2cc1OCCN1CCCCC1 |
| ≤ 1 µM | COc1cc2c(NS(=O)(=O)c3cccc4cccnc34)ncnc2cc1OCCN1CCOCC1 |
| ≤ 1 µM | CCN(CC)CCOc1cc2ncnc(NS(=O)(=O)c3ccccc3Br)c2cc1OC |
| ≤ 1 µM | COc1cc2c(NS(=O)(=O)c3ccccc3C)ncnc2cc1OCCN1CCOCC1 |
| ≤ 1 µM | COc1cc2c(NS(=O)(=O)c3cc(Cl)c(Cl)s3)ncnc2cc1OCCCN(C)C |
| ≤ 1 µM | COc1cc2c(NS(=O)(=O)c3ccc(C)cc3)ncnc2cc1OCCN1CCN(C)CC1 |
| ≤ 1 µM | COc1cc2c(NS(=O)(=O)c3ccc4ccccc4c3)ncnc2cc1OCCN1CCN(C)CC1 |
| ≤ 1 µM | COc1cc2c(NS(=O)(=O)Cc3ccccc3)ncnc2cc1OCCN1CCOCC1 |
| ≤ 1 µM | COc1cc2c(NS(=O)(=O)c3ccc(Cl)s3)ncnc2cc1OCCN1CCCCC1 |
| ≤ 1 µM | COc1cc2c(NS(=O)(=O)c3cccc(Br)c3)ncnc2cc1OCCCN(C)C |

| IC50 | SMILES |
| --- | --- |
| ≤ 1 µM | COc1ccc(S(=O)(=O)Nc2ncnc3cc(OCCN4CCCCC4)c(OC)cc23)cc1OC |
| ≤ 1 µM | COc1cc2c(NS(=O)(=O)c3ccc(F)cc3)ncnc2cc1OCCCN1CCOCC1 |
| ≤ 1 µM | COc1cc2c(NS(=O)(=O)c3ccc(OC(F)(F)F)cc3)ncnc2cc1OCCCN(C)C |
| ≤ 1 µM | CCN(CC)CCOc1cc2ncnc(NS(C)(=O)=O)c2cc1OC |
| ≤ 1 µM | COc1cc2c(NS(=O)(=O)c3ccc(Br)cc3)ncnc2cc1OCCN1CCN(C)CC1 |
| ≤ 1 µM | CCN(CC)CCOc1cc2ncnc(NS(=O)(=O)c3c(C)noc3C)c2cc1OC |
| ≤ 1 µM | COc1ccc(OC)c(S(=O)(=O)Nc2ncnc3cc(OC4CCN(C)CC4)c(OC)cc23)c1 |
| ≤ 1 µM | COc1cc2c(NS(=O)(=O)c3ccc(Cl)cc3)ncnc2cc1OCCN1CCN(C)CC1 |
| ≤ 1 µM | COc1cc2c(NS(=O)(=O)c3cccc4cccnc34)ncnc2cc1OCCN1CCCCC1 |
| ≤ 1 µM | COc1cc2c(NS(=O)(=O)c3ccc(Sc4cccs4)s3)ncnc2cc1OCCN1CCOCC1 |
| ≤ 1 µM | CCN(CC)CCOc1cc2ncnc(NS(=O)(=O)Cc3ccccc3)c2cc1OC |
| ≤ 1 µM | COc1cc2c(NS(=O)(=O)c3ccc(Sc4ccccc4)s3)ncnc2cc1OC1CCN(C)CC1 |
| ≤ 1 µM | COc1cc2c(NS(=O)(=O)c3c(C)cc(C)cc3C)ncnc2cc1OCCN1CCCCC1 |
| ≤ 1 µM | CCN(CC)CCOc1cc2ncnc(NS(=O)(=O)c3ccc(Sc4cccs4)s3)c2cc1OC |
| ≤ 1 µM | COc1cc2c(NS(=O)(=O)c3cccc4cccnc34)ncnc2cc1OCCCN1CCOCC1 |
| ≤ 1 µM | COc1cc2c(NS(=O)(=O)c3ccc(F)cc3)ncnc2cc1OCCN1CCCCC1 |
| ≤ 1 µM | COc1cc2c(NS(=O)(=O)Cc3ccccc3)ncnc2cc1OC1CCN(C)CC1 |
| ≤ 1 µM | COc1cc2c(NS(=O)(=O)c3ccc(C)cc3)ncnc2cc1OCCCN(C)C |
| ≤ 1 µM | COc1cc2c(NS(=O)(=O)c3ccc(OC(F)(F)F)cc3)ncnc2cc1OCCN1CCCCC1 |
| ≤ 1 µM | CCN(CC)CCOc1cc2ncnc(NS(=O)(=O)c3ccc(C)cc3)c2cc1OC |
| ≤ 1 µM | CCN(CC)CCOc1cc2ncnc(NS(=O)(=O)c3ccccc3Cl)c2cc1OC |
| ≤ 1 µM | COc1cc2c(NS(=O)(=O)c3ccccc3Br)ncnc2cc1OC1CCN(C)CC1 |
| ≤ 1 µM | COc1cc2c(NS(=O)(=O)Cc3ccccc3)ncnc2cc1OCCN1CCCCC1 |
| ≤ 1 µM | COc1cc2c(NS(=O)(=O)c3cccc(Cl)c3)ncnc2cc1OCCN1CCCCC1 |
| ≤ 1 µM | COc1cc2c(NS(=O)(=O)c3ccc(F)cc3)ncnc2cc1OC1CCN(C)CC1 |
| ≤ 1 µM | COc1cc2c(NS(C)(=O)=O)ncnc2cc1OC1CCN(C)CC1 |

| IC50 | SMILES |
| --- | --- |
| ≤ 1 µM | CCN(CC)CCOc1cc2ncnc(NS(=O)(=O)c3ccc(OC)c(OC)c3)c2cc1OC |
| ≤ 1 µM | COc1cc2c(NS(=O)(=O)c3ccccc3Cl)ncnc2cc1OC1CCN(C)CC1 |
| ≤ 1 µM | COc1cc2c(NS(=O)(=O)c3cc(Cl)cc(Cl)c3)ncnc2cc1OCCCN1CCOCC1 |
| ≤ 1 µM | COc1cc2c(NS(=O)(=O)c3ccc(Cl)cc3Cl)ncnc2cc1OCCCN1CCOCC1 |
| ≤ 1 µM | COc1cc2c(NS(=O)(=O)c3cc(Cl)cc(Cl)c3)ncnc2cc1OCCN1CCN(C)CC1 |
| ≤ 1 µM | COc1cc2c(NS(=O)(=O)c3cc(Cl)cc(Cl)c3)ncnc2cc1OCCCN(C)C |
| ≤ 1 µM | COc1cc2c(NS(=O)(=O)c3ccccc3C#N)ncnc2cc1OCCCN1CCOCC1 |
| ≤ 1 µM | CCN(CC)CCOc1cc2ncnc(NS(=O)(=O)c3ccccc3C)c2cc1OC |
| ≤ 1 µM | COc1cc2c(NS(=O)(=O)c3ccccc3C)ncnc2cc1OCCCN1CCOCC1 |
| ≤ 1 µM | COc1cc2c(NS(=O)(=O)c3ccc(Sc4cccs4)s3)ncnc2cc1OCCCN(C)C |
| ≤ 1 µM | COc1cc2c(NS(=O)(=O)c3ccccc3Cl)ncnc2cc1OCCN1CCN(C)CC1 |
| ≤ 1 µM | COc1cc2c(NS(C)(=O)=O)ncnc2cc1OCCN1CCOCC1 |
| ≤ 1 µM | COc1cc2c(NS(=O)(=O)c3ccc(C)cc3)ncnc2cc1OC1CCN(C)CC1 |
| ≤ 1 µM | COc1cc2c(NS(=O)(=O)c3ccc(C)cc3)ncnc2cc1OCCCN1CCOCC1 |
| ≤ 1 µM | COc1ccc(S(=O)(=O)Nc2ncnc3cc(OCCN4CCOCC4)c(OC)cc23)cc1OC |
| ≤ 1 µM | COc1ccc(OC)c(S(=O)(=O)Nc2ncnc3cc(OCCN4CCOCC4)c(OC)cc23)c1 |
| ≤ 1 µM | COc1cc2c(NS(=O)(=O)Cc3ccccc3)ncnc2cc1OCCN1CCN(C)CC1 |
| ≤ 1 µM | CCN(CC)CCOc1cc2ncnc(NS(=O)(=O)c3ccc(F)cc3)c2cc1OC |
| ≤ 1 µM | COc1cc2c(NS(=O)(=O)c3ccccc3Br)ncnc2cc1OCCN1CCCCC1 |
| ≤ 1 µM | COc1ccc(S(=O)(=O)Nc2ncnc3cc(OCCCN(C)C)c(OC)cc23)cc1 |
| ≤ 1 µM | COc1cc2c(NS(=O)(=O)c3ccc(OC(F)(F)F)cc3)ncnc2cc1OC1CCN(C)CC1 |
| ≤ 1 µM | COc1cc2c(NS(=O)(=O)c3ccccc3)ncnc2cc1OCCN1CCOCC1 |
| ≤ 1 µM | COc1cc2c(NS(=O)(=O)c3cccc(Cl)c3Cl)ncnc2cc1OCCCN(C)C |
| ≤ 1 µM | CCN(CC)CCOc1cc2ncnc(NS(=O)(=O)c3cc(Cl)cc(Cl)c3)c2cc1OC |
| ≤ 1 µM | COc1cc2c(NS(=O)(=O)c3ccc(Br)cc3)ncnc2cc1OCCCN(C)C |
| ≤ 1 µM | CCN(CC)CCOc1cc2ncnc(NS(=O)(=O)c3cc(Cl)c(Cl)s3)c2cc1OC |

| IC50 | SMILES |
| --- | --- |
| ≤ 1 µM | COc1cc2c(NS(=O)(=O)c3cccc(Cl)c3)ncnc2cc1OC1CCN(C)CC1 |
| ≤ 1 µM | COc1cc2c(NS(=O)(=O)c3ccc(Cl)cc3)ncnc2cc1OCCCN1CCOCC1 |
| ≤ 1 µM | COc1cc2c(NS(=O)(=O)c3c(C)cc(C)cc3C)ncnc2cc1OCCN1CCOCC1 |
| ≤ 1 µM | COc1cc2c(NS(=O)(=O)c3cccc4cccnc34)ncnc2cc1OC1CCN(C)CC1 |
| ≤ 1 µM | COc1cc2c(NS(=O)(=O)c3ccc(Br)cc3)ncnc2cc1OCCN1CCOCC1 |
| ≤ 1 µM | COc1cc2c(NS(=O)(=O)c3ccccc3Cl)ncnc2cc1OCCCN1CCOCC1 |
| ≤ 1 µM | COc1ccc(S(=O)(=O)Nc2ncnc3cc(OCCN4CCCCC4)c(OC)cc23)cc1 |
| ≤ 1 µM | CCN(CC)CCOc1cc2ncnc(NS(=O)(=O)c3ccc(Cl)s3)c2cc1OC |
| ≤ 1 µM | COc1cc2c(NS(=O)(=O)c3ccc(C(F)(F)F)cc3)ncnc2cc1OCCN1CCOCC1 |
| ≤ 1 µM | COc1cc2c(NS(=O)(=O)c3ccc(Cl)s3)ncnc2cc1OCCCN(C)C |
| ≤ 1 µM | COc1ccc(S(=O)(=O)Nc2ncnc3cc(OCCN4CCN(C)CC4)c(OC)cc23)cc1 |
| ≤ 1 µM | CCN(CC)CCOc1cc2ncnc(NS(=O)(=O)c3ccc(OC)cc3)c2cc1OC |
| ≤ 1 µM | COc1ccc(S(=O)(=O)Nc2ncnc3cc(OCCN4CCN(C)CC4)c(OC)cc23)cc1OC |
| ≤ 1 µM | COc1cc2c(NS(=O)(=O)c3ccc4ccccc4c3)ncnc2cc1OCCN1CCCCC1 |
| ≤ 1 µM | COc1ccc(OC)c(S(=O)(=O)Nc2ncnc3cc(OCCCN(C)C)c(OC)cc23)c1 |
| ≤ 1 µM | COc1cc2c(NS(=O)(=O)c3cccc(Cl)c3)ncnc2cc1OCCCN1CCOCC1 |
| ≤ 1 µM | CCN(CC)CCOc1cc2ncnc(NS(=O)(=O)c3c(C)cc(C)cc3C)c2cc1OC |
| ≤ 1 µM | COc1ccc(OC)c(S(=O)(=O)Nc2ncnc3cc(OCCN4CCN(C)CC4)c(OC)cc23)c1 |
| ≤ 1 µM | CCN(CC)CCOc1cc2ncnc(NS(=O)(=O)c3ccc(Sc4ccccc4)s3)c2cc1OC |
| ≤ 1 µM | COc1cc2c(NS(=O)(=O)c3c(C)noc3C)ncnc2cc1OCCN1CCOCC1 |
| ≤ 1 µM | CCN(CC)CCOc1cc2ncnc(NS(=O)(=O)c3ccc(C(C)(C)C)cc3)c2cc1OC |
| ≤ 1 µM | COc1cc2c(NS(=O)(=O)c3ccc(Sc4cccs4)s3)ncnc2cc1OCCN1CCCCC1 |
| ≤ 1 µM | COc1cc2c(NS(=O)(=O)c3cn(C)cn3)ncnc2cc1OCCN1CCCCC1 |
